Organism: Rattus norvegicus
Experiment: DrugMatrix - Regimen: Daily Repeat
Type: toxicity, organism-based, Sprague-Dawley
Parameters: regimen Daily Repeat, gender Male, age 6-8 weeks
Conditions: in vivo, po, route oral GAVAGE, vehicle .5 % CMC; for ABSOLUTE BASOPHIL / ABSOLUTE EOSINOPHIL / ABSOLUTE LYMPHOCYTE / ABSOLUTE MONOCYTE / ABSOLUTE SEGMENTED NEUTROPHIL / BASOPHIL / EOSINOPHIL / ERYTHROCYTE COUNT / HEMATOCRIT / HEMOGLOBIN / LEUKOCYTE COUNT / LYMPHOCYTE / MEAN CORPUSCULAR HEMOGLOBIN / MEAN CORPUSCULAR HEMOGLOBIN CONCENTRATION / MEAN CORPUSCULAR VOLUME / MONOCYTE / NEUTROPHIL / NUCLEATED RED BLOOD CELLS / PLATELET COUNT: tissue Blood; for ALANINE AMINOTRANSFERASE / ALBUMIN / ALKALINE PHOSPHATASE / ASPARTATE AMINOTRANSFERASE / BLOOD UREA NITROGEN / CARBON DIOXIDE / CHLORIDE / CHOLESTEROL / CREATINE PHOSPHOKINASE / CREATININE / GLUCOSE / LACTATE DEHYDROGENASE / LIPASE / PHOSPHORUS / POTASSIUM / SODIUM / TOTAL BILIRUBIN / TOTAL PROTEIN / URIC ACID: tissue Plasma
[1] = 20 mg/kg, 120 h, dose level Low, time 5 day
[2] = 1500 mg/kg, 72 h, dose level High, time 3 day
[3] = 1500 mg/kg, 120 h, dose level High, time 5 day

## CC(C)(C)NC(=O)[C@@H]1C[C@@H]2CCCC[C@@H]2CN1C[C@@H](O)[C@H](Cc1ccccc1)NC(=O)[C@H](CC(N)=O)NC(=O)c1ccc2ccccc2n1
[1]
  ABSOLUTE BASOPHIL: 0 CELLS/uL
  ABSOLUTE EOSINOPHIL: 247 CELLS/uL
  ABSOLUTE LYMPHOCYTE: 11820.33 CELLS/uL
  ABSOLUTE MONOCYTE: 0 CELLS/uL
  ABSOLUTE SEGMENTED NEUTROPHIL: 1032.67 CELLS/uL
  BASOPHIL: 0%
  EOSINOPHIL: 2%
  ERYTHROCYTE COUNT: 5.22 x10E6/uL
  HEMATOCRIT: 32.83%
  HEMOGLOBIN: 12.53 G/DL
  LEUKOCYTE COUNT: 13.1 x10E3/uL
  LYMPHOCYTE: 90.33%
  MEAN CORPUSCULAR HEMOGLOBIN: 24.03 pg
  MEAN CORPUSCULAR HEMOGLOBIN CONCENTRATION: 38.2 G/DL
  MEAN CORPUSCULAR VOLUME: 63.03 fL
  MONOCYTE: 0%
  NEUTROPHIL: 7.67%
  NUCLEATED RED BLOOD CELLS: 0 /100WBC
  PLATELET COUNT: 1193.67 x10E3/uL
  ALANINE AMINOTRANSFERASE: 53.33 u/L
  ALBUMIN: 4.33 G/DL
  ALKALINE PHOSPHATASE: 341.67 u/L
  ASPARTATE AMINOTRANSFERASE: 80.67 u/L
  BLOOD UREA NITROGEN: 18 mg/dL
  CARBON DIOXIDE: 25.33 mmol/L
  CHLORIDE: 102.67 MEQ/L
  CHOLESTEROL: 79.33 mg/dL
  CREATINE PHOSPHOKINASE: 166.33 u/L
  CREATININE: 0.19 mg/dL
  GLUCOSE: 146.67 mg/dL
  LACTATE DEHYDROGENASE: 98.33 u/L
  LIPASE: 8.67 u/L
  PHOSPHORUS: 11.57 mg/dL
  POTASSIUM: 5.98 MEQ/L
  SODIUM: 144.17 MEQ/L
  TOTAL BILIRUBIN: 0.17 mg/dL
  TOTAL PROTEIN: 6.37 G/DL
  URIC ACID: 1.27 mg/dL
[2]
  ABSOLUTE BASOPHIL: 0 CELLS/uL
  ABSOLUTE EOSINOPHIL: 137.33 CELLS/uL
  ABSOLUTE LYMPHOCYTE: 12869.33 CELLS/uL
  ABSOLUTE MONOCYTE: 0 CELLS/uL
  ABSOLUTE SEGMENTED NEUTROPHIL: 1126.67 CELLS/uL
  BASOPHIL: 0%
  EOSINOPHIL: 1%
  ERYTHROCYTE COUNT: 6.18 x10E6/uL
  HEMATOCRIT: 38.67%
  HEMOGLOBIN: 14.47 G/DL
  LEUKOCYTE COUNT: 14.13 x10E3/uL
  LYMPHOCYTE: 91%
  MEAN CORPUSCULAR HEMOGLOBIN: 23.47 pg
  MEAN CORPUSCULAR HEMOGLOBIN CONCENTRATION: 37.4 G/DL
  MEAN CORPUSCULAR VOLUME: 62.63 fL
  MONOCYTE: 0%
  NEUTROPHIL: 8%
  NUCLEATED RED BLOOD CELLS: 0 /100WBC
  PLATELET COUNT: 1247.33 x10E3/uL
  ALANINE AMINOTRANSFERASE: 48.67 u/L
  ALBUMIN: 4.4 G/DL
  ALKALINE PHOSPHATASE: 408 u/L
  ASPARTATE AMINOTRANSFERASE: 76.67 u/L
  BLOOD UREA NITROGEN: 14 mg/dL
  CARBON DIOXIDE: 26.67 mmol/L
  CHLORIDE: 99.67 MEQ/L
  CHOLESTEROL: 80 mg/dL
  CREATINE PHOSPHOKINASE: 218.33 u/L
  CREATININE: 0.15 mg/dL
  GLUCOSE: 162 mg/dL
  LACTATE DEHYDROGENASE: 94.33 u/L
  LIPASE: 8.67 u/L
  PHOSPHORUS: 12.5 mg/dL
  POTASSIUM: 6.95 MEQ/L
  SODIUM: 144.6 MEQ/L
  TOTAL BILIRUBIN: 0.17 mg/dL
  TOTAL PROTEIN: 6.17 G/DL
  URIC ACID: 1.83 mg/dL
[3]
  ABSOLUTE BASOPHIL: 0 CELLS/uL
  ABSOLUTE EOSINOPHIL: 190 CELLS/uL
  ABSOLUTE LYMPHOCYTE: 12822 CELLS/uL
  ABSOLUTE MONOCYTE: 0 CELLS/uL
  ABSOLUTE SEGMENTED NEUTROPHIL: 1388 CELLS/uL
  BASOPHIL: 0%
  EOSINOPHIL: 1.33%
  ERYTHROCYTE COUNT: 5.33 x10E6/uL
  HEMATOCRIT: 33.83%
  HEMOGLOBIN: 13.1 G/DL
  LEUKOCYTE COUNT: 14.4 x10E3/uL
  LYMPHOCYTE: 89.33%
  MEAN CORPUSCULAR HEMOGLOBIN: 24.63 pg
  MEAN CORPUSCULAR HEMOGLOBIN CONCENTRATION: 38.73 G/DL
  MEAN CORPUSCULAR VOLUME: 63.53 fL
  MONOCYTE: 0%
  NEUTROPHIL: 9.33%
  NUCLEATED RED BLOOD CELLS: 0 /100WBC
  PLATELET COUNT: 1411.67 x10E3/uL
  ALANINE AMINOTRANSFERASE: 48 u/L
  ALBUMIN: 4.4 G/DL
  ALKALINE PHOSPHATASE: 396.33 u/L
  ASPARTATE AMINOTRANSFERASE: 69 u/L
  BLOOD UREA NITROGEN: 15.67 mg/dL
  CARBON DIOXIDE: 25.67 mmol/L
  CHLORIDE: 103.33 MEQ/L
  CHOLESTEROL: 71.67 mg/dL
  CREATINE PHOSPHOKINASE: 233.33 u/L
  CREATININE: 0.17 mg/dL
  GLUCOSE: 169 mg/dL
  LACTATE DEHYDROGENASE: 123.33 u/L
  LIPASE: 8.33 u/L
  PHOSPHORUS: 12.8 mg/dL
  POTASSIUM: 6.57 MEQ/L
  SODIUM: 145.83 MEQ/L
  TOTAL BILIRUBIN: 0.23 mg/dL
  TOTAL PROTEIN: 6.23 G/DL
  URIC ACID: 1.7 mg/dL

Reference: ChEMBL document CHEMBL3885881, “DrugMatrix”
